For the assay, the target named is T1, FPR2 (Homo sapiens, UniProt P25090).
T1 construct: expressed in transfected cells; host or cells: CHO-Ga16 cells stably expressing FPR2
T1 sequence (P25090 1-351): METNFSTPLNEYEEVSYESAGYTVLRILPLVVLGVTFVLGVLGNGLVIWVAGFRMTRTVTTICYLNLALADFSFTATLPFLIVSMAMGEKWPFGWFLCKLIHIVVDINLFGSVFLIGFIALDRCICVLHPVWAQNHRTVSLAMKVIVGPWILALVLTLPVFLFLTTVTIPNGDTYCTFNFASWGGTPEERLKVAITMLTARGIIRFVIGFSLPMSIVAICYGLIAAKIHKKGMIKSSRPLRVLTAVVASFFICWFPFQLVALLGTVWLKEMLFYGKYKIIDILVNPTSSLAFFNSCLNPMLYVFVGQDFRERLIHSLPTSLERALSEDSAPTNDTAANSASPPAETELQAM
The experiment in a line: compound-induced calcium activity on FLIPR Tetra in CHO-Ga16 cells stably expressing FPR2. Conditions: for Emax: efficacy value given as a fraction, read-out: FPR2 Ga16-CHO (0.% eff) efficacy. It is filed as cell-based. As for the experimental part: CHO-Ga16 cells stably expressing FPR2 were cultured in (F12, 10% FBS, 1% PSA, 400 μg/ml geneticin and 50 μg/ml hygromycin) and HEK-Gqi5 cells stable expressing FPR2 were cultured in (DMEM high glucose, 10% FBS, 1% PSA, 400 μg/ml geneticin and 50 μg/ml hygromycin). In general, the day before the experiment, 18,000 cells/well were placed in a 384-well clear bottom poly-d-lysine coated plate. The following day the screening compound-induced calcium activity was assayed on the FLIPR^Tetra. The drug plates were prepared in 384-well microplates using the EP3 and the MuItiPROBE robotic liquid handling systems. Compounds were tested at concentrations ranging from 0.61 to 10,000 nM. Results are expressed as EC50 (nM) and efficacy values.

[1] abbreviates: CHO-Ga16 cells stably expressing FPR2, calcium activity, FLIPR Tetra, concentrations 0.61 to 10,000 nM.
The mark [2] stands for this setting: CHO-Ga16 cells stably expressing FPR2.

By EC50 is commonly meant the midpoint of the concentration-response curve.

Read-outs that look alike come from different tables or passages of the source.

Take `CCCC(NC(=O)Nc1ccc(Br)cc1)C(=O)NCP(=O)(O)OC(C)C` (centres unmarked) [Compound 19, Iso-propyl hydrogen ({[2-({[(4-bromophenyl)amino]carbonyl}amino)pentanoyl]amino}methyl)phosphonate]: under setting [1], the EC50 came to 1.87 nM. In addition, the Emax under setting [2] was found to be 89%.
For `CCOP(=O)(O)CNC(=O)[C@@H](NC(=O)Nc1ccc(Br)cc1)[C@@H](C)CC` [Compound 16, Ethyl hydrogen ({[(2S,3S)-2-({[(4-bromophenyl)amino]carbonyl}amino)-3-methylpentanoyl]amino}methyl)phosphonate], the EC50 under setting [1] turned out to be 3.2 nM. The Emax under setting [2] turned out to be 88%.
The corresponding values for `CC(C)C[C@H](NC(=O)Nc1ccc(C(F)(F)F)cc1)C(=O)NCc1nnn[nH]1` [Compound 12, (2S)-4-methyl-N-(1H-tetrazol-5-ylmethyl)-2-[({[4-(trifluoromethyl)phenyl]amino}carbonyl)amino]pentanamide] are 4 nM and 91%.
Take `CCOP(=O)(O)CNC(=O)[C@H](Cc1ccccc1)NC(=O)Nc1ccc(Br)cc1` [Compound 18, Ethyl hydrogen ({[(2S)-2-({[(4-bromophenyl)amino]carbonyl}amino)-3-phenylpropanoyl]amino}methyl)phosphonate]: the EC50 came out at 16 nM. Besides, the Emax under setting [2] is 110%.
On the same counts, the results for `CCC[C@H](NC(=O)Nc1ccc(Br)cc1)C(=O)NCP(=O)(O)OCC` [Compound 17, Ethyl hydrogen ({[(2S)-2-({[(4-bromophenyl)amino]carbonyl}amino)pentanoyl]amino}methyl)phosphonate] are 1 nM and 94%.
Take `CCOP(=O)(O)CNC(=O)[C@H](CC(C)C)NC(=O)Nc1ccc(S(C)(=O)=O)cc1` [Compound 21, ethyl hydrogen [({(2S)-4-methyl-2-[({[4-(methylsulfonyl)phenyl]amino}carbonyl)amino]pentanoyl}amino)methyl]phosphonate]: under setting [1], the EC50 was found to be 133 nM. The Emax under setting [2] was found to be 99%.
On the same counts, the results for `CCC[C@H](NC(=O)Nc1ccc(Br)cc1)C(=O)NCP(=O)(OCC)OCC` [Compound 6, Diethyl ({[(2S)-2-({[(4-bromophenyl)amino]carbonyl}amino)pentanoyl]amino}methyl)phosphonate] are 0.29 nM and 94%.
The corresponding values for `CCOP(=O)(CNC(=O)[C@H](CC(C)C)NC(=O)Nc1ccc(C(F)(F)F)cc1)OCC` [Compound 11, Diethyl [({(2S)-4-methyl-2-[({[4-(trifluoromethyl)phenyl]amino}carbonyl)amino]pentanoyl}amino)methyl]phosphonate] are 8 nM and 100%.
For `CC(C)C[C@H](NC(=O)Nc1ccc(Br)cc1)C(=O)NCc1cc(O)no1` [Compound 4, (2S)-2-({[(4-Bromophenyl)amino]carbonyl}amino)-N-[(3-hydroxyisoxazol-5-yl)methyl]-4-methylpentanamide], the EC50 under setting [1] was 12 nM. Besides, the Emax under setting [2] worked out at 100%.
On the same counts, the results for `CC(C)C[C@H](NC(=O)Nc1ccc(Br)cc1)C(=O)NCS(=O)(=O)O` [{[(2S)-2-{[(4-Bromophenyl)carbamoyl]amino}-4-methylpentanoyl]amino}methanesulfonic acid] are 2.3 nM and 91%.
As for `CCOP(=O)(O)CNC(=O)[C@H](CC(C)C)NC(=O)Nc1ccc(Br)cc1` [Compound 15, Ethyl hydrogen({[(2S)-2-({[(4-bromophenyl)amino]carbonyl}amino)-4-methylpentanoyl]amino}methyl)phosphonate], the EC50 came to 0.95 nM. Besides, the Emax under setting [2] is 88%.
For `CCOP(=O)(CNC(=O)[C@H](CC(C)C)NC(=O)Nc1ccc(Br)cc1)OCC` [Compound 1, Diethyl({[(2S)-2-({[(4-bromophenyl)amino]carbonyl}amino)-4-methylpentanoyl]amino}methyl)phosphonate], the concentration for a half-maximal effect (EC50) under setting [1] was 0.59 nM. For the same compound, the Emax under setting [2] came out at 100%.
As to `CCOP(=O)(CNC(=O)[C@@H](NC(=O)Nc1ccc(Br)cc1)[C@@H](C)CC)OCC` [Compound 5, Diethyl ({[(2S,3S)-2-({[(4-bromophenyl)amino]carbonyl}amino)-3-methylpentanoyl]amino}methyl)phosphonate], the EC50 under setting [1] stood at 2.4 nM. Under setting [2], the Emax is 100%.
The corresponding values for `CCOP(=O)(O)CNC(=O)[C@H](CC(C)C)NC(=O)Nc1ccc(C(F)(F)F)cc1` [Compound 20, Ethyl hydrogen [({(2S)-4-methyl-2-[({[4-(trifluoromethyl)phenyl]amino}carbonyl)amino]pentanoyl}amino)methyl]phosphonate] are 2 nM and 95%.
On to `CCOP(=O)(CCNC(=O)[C@H](CC(C)C)NC(=O)Nc1ccc(Br)cc1)OCC` [Compound 8, Diethyl (2-{[(2S)-2-({[(4-bromophenyl)amino]carbonyl}amino)-4-methylpentanoyl]amino}ethyl)phosphonate], for which, under setting [1], the EC50 stood at 1.8 nM. The Emax under setting [2] was 100%.
The corresponding values for `CC(C)C[C@H](NC(=O)Nc1ccc(C(F)(F)F)cc1)C(=O)NCP(=O)(O)O` [Compound 23, [({(2S)-4-methyl-2-[({[4-(trifluoromethyl)phenyl]amino}carbonyl)amino]pentanoyl}amino)methyl]phosphonic acid] are 64 nM and 102%.
The corresponding values for `CCOP(=O)(CNC(=O)[C@H](CC(C)C)NC(=O)Nc1ccc(SC)cc1)OCC` [Compound 14, Diethyl [({(2S)-4-methyl-2-[({[4-(methylthio)phenyl]amino}carbonyl)amino]pentanoyl}amino)methyl]phosphonate] are 2.1 nM and 90%.
The corresponding values for `CC(C)C[C@H](NC(=O)Nc1ccc(Br)cc1)C(=O)NCCc1nnn[nH]1` [Compound 3, (2S)-2-({[(4-Bromophenyl)amino]carbonyl}amino)-4-methyl-N-[2-(1H-tetrazol-5-yl)ethyl]pentanamide] are 47.9 nM and 100%.
As to `CCC[C@H](NC(=O)Nc1ccc(Br)cc1)C(=O)NCP(=O)(O)O` [Compound 22, ({[(2S)-2-({[(4-bromophenyl)amino]carbonyl}amino)pentanoyl]amino}methyl)phosphonic acid], under setting [1], the EC50 came out at 32 nM. Also, the Emax under setting [2] was found to be 94%.
The corresponding values for `CC(C)C[C@H](NC(=O)Nc1ccc(Br)cc1)C(=O)NCc1nnn[nH]1` [Compound 2, (2S)-2-({[(4-Bromophenyl)amino]carbonyl}amino)-4-methyl-N-(1H-tetrazol-5-ylmethyl)pentanamide] are 2.3 nM and 81%.
Take `CCOP(=O)(CNC(=O)[C@H](Cc1ccccc1)NC(=O)Nc1ccc(Br)cc1)OCC` [Compound 7, Diethyl ({[(2S)-2-({[(4-bromophenyl)amino]carbonyl}amino)-3-phenylpropanoyl]amino}methyl)phosphonate]: the EC50 under setting [1] worked out at 20 nM. The Emax under setting [2] worked out at 98%.
On the same counts, the results for `CC(C)C[C@H](NC(=O)Nc1ccc(Br)cc1)C(=O)NCP(=O)(OC(C)C)OC(C)C` [Compound 10, Diisopropyl ({[2-({[(4-bromophenyl)amino]carbonyl}amino)-4-methylpentanoyl]amino}methyl)phosphonate] are 4 nM and 100%.
Consider `CCOP(=O)(CNC(=O)[C@H](CC(C)C)NC(=O)Nc1ccc(S(C)(=O)=O)cc1)OCC` [Compound 24, Diethyl[({(2S)-4-methyl-2-[({[4-(methylsulfonyl)phenyl]amino}carbonyl)amino]pentanoyl}amino)methyl]phosphonate], for which, under setting [1], the EC50 turned out to be 45 nM. The Emax under setting [2] came out at 112%.
For `CC(C)C[C@H](NC(=O)Nc1ccc(C(F)(F)F)cc1)C(=O)NCS(=O)(=O)O` [Compound 13, ({(2S)-4-methyl-2-[({[4-(trifluoromethyl)phenyl]amino}carbonyl)amino]pentanoyl}amino)methanesulfonic acid], under setting [1], the 50% effective concentration (EC50) stood at 1.6 nM. Under setting [2], the Emax is 100%.
On the same counts, the results for `CCC[C@H](NC(=O)Nc1ccc(Br)cc1)C(=O)NCP(=O)(OC(C)C)OC(C)C` [Compound 9, Diisopropyl ({[(2S)-2-({[(4-bromophenyl)amino]carbonyl}amino)pentanoyl]amino}methyl)phosphonate] are 0.8 nM and 94%.

For the origin of these results see patent publication US9670150B2, “(2-ureidoacetamido)alkyl derivatives as formyl peptide receptor 2 modulators” (Allergan, Inc., priority 2012, dated 2017).
